Patent US20060121449A1, “Method for selection of compounds which inhibit clonal cell growth and use thereof” (priority 2002, published 2006)
Entries after “also recorded” stand apart in the source; their conditions may differ.

Tests used:
[1] = tested on: polyoma virus transformed BHK21/c13 cells, line S100T1;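 note: soft agar cultures in 24-well plates with a cell density gradient in the top layer, compounds applied from DMSO stocks, clonal growth scored in sparse versus dense areas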;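 for Clonal growth, H high density area of cell gradient, High: grades rise with clonal growth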;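 for Clonal growth, H high density area of cell gradient, Low: grades rise with clonal growth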;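 for Clonal growth, H high density area of cell gradient, Medium: grades rise with clonal growth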;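 for Clonal growth, L low density area of cell gradient, High: grades rise with clonal growth and minus or plus-minus means none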;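 for Clonal growth, L low density area of cell gradient, Low: grades rise with clonal growth and minus or plus-minus means none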
[2] = tested on: polyoma virus transformed BHK21/c13 cells, line S100T1; assay: Collocation inhibition test: clonal growth in sparsely and densely seeded areas of a cell density gradient of S100T1 cells in soft agar (Exp 13, 17, 19-26); conditions: for Significance: Exp 17 day 14;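 for Clonal growth, H high density area of cell gradient, High: grades rise with clonal growth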;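 for Clonal growth, H high density area of cell gradient, Low: grades rise with clonal growth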;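 for Clonal growth, H high density area of cell gradient, Medium: grades rise with clonal growth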;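 for Clonal growth, L low density area of cell gradient, High: grades rise with clonal growth and minus or plus-minus means none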;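 for Clonal growth, L low density area of cell gradient, Low: grades rise with clonal growth and minus or plus-minus means none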;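 for all read-outs here: soft agar cultures in 24-well plates with a cell density gradient in the top layer, compounds applied from DMSO stocks, clonal growth scored in sparse versus dense areas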
[3] = preliminary results, Exp 13-18, 21-26, high concentration
[4] = preliminary results, Exp 13-18, 21-26, low concentration
[5] = preliminary results, Exp 13-18, 21-26, medium concentration

## COc1cc([C@@H]2c3cc4c(cc3[C@@H](O[C@@H]3O[C@@H]5CO[C@@H](C)O[C@H]5[C@H](O)[C@H]3O)[C@H]3COC(=O)[C@H]23)OCO4)cc(OC)c1O [Etoposide, reference compound]
[1]
  Toxicity for body or dense cell populations: yes
[2]; Exp 17
  Inhibition of cells in crowded areas: induce the best inhibition of cells in crowded areas
[2]; Exp 17, 144000 S100T1 cells/well
  Effect on growth in high- and low-density areas: growth inhibition of both high and low-density areas; also recorded: significant inhibition of growth in crowded areas
[2]; Exp 17, a: close to densely seeded cell areas, High: Colchicine 1, Podophyllotoxin 3, Etoposide 200, 4-OH—OPB 6.7 μM in wells, DMSO 29.2 μl
  Clonal growth, results read on the day 14: (+)
[2]; Exp 17, a: close to densely seeded cell areas, Low: Colchicine 0.1, Podophyllotoxin 0.3, Etoposide 20, 4-OH—OPB 0.67 μM in wells, DMSO 1.16 μl
  Clonal growth, results read on the day 14: +
[2]; Exp 17, a: close to densely seeded cell areas, Medium: Colchicine 0.3, Podophyllotoxin 0.9, Etoposide 60, 4-OH—OPB 2 μM in wells, DMSO 6.8 μl
  Clonal growth, results read on the day 14: +
[2]; Exp 17, b: sparsely seeded areas in the same agar culture, High: Colchicine 1, Podophyllotoxin 3, Etoposide 200, 4-OH—OPB 6.7 μM in wells, DMSO 29.2 μl
  Clonal growth, results read on the day 14: (+)
[2]; Exp 17, b: sparsely seeded areas in the same agar culture, Low: Colchicine 0.1, Podophyllotoxin 0.3, Etoposide 20, 4-OH—OPB 0.67 μM in wells, DMSO 1.16 μl
  Clonal growth, results read on the day 14: (+)
[2]; Exp 17, b: sparsely seeded areas in the same agar culture, Medium: Colchicine 0.3, Podophyllotoxin 0.9, Etoposide 60, 4-OH—OPB 2 μM in wells, DMSO 6.8 μl
  Clonal growth, results read on the day 14: (+)
[2]; Exp 17, compared with 4-OH-OPB
  Clones in sparsely seeded locations of the agar: allow the growth of a few small clones in sparsely seeded locations of the agar; also recorded: to allow the growth of a few small clones in sparsely
[2]; a: close to densely seeded cell areas, High: Colchicine 1, Podophyllotoxin 3, Etoposide 200, 4-OH—OPB 6.7 μM in wells, DMSO 29.2 μl
  Significance: Possible
[2]; a: close to densely seeded cell areas, Low: Colchicine 0.1, Podophyllotoxin 0.3, Etoposide 20, 4-OH—OPB 0.67 μM in wells, DMSO 1.16 μl
  Significance: No
[2]; a: close to densely seeded cell areas, Medium: Colchicine 0.3, Podophyllotoxin 0.9, Etoposide 60, 4-OH—OPB 2 μM in wells, DMSO 6.8 μl
  Significance: No
[2]; b: sparsely seeded areas, High: Colchicine 1, Podophyllotoxin 3, Etoposide 200, 4-OH—OPB 6.7 μM in wells, DMSO 29.2 μl
  Significance: Possible
[2]; b: sparsely seeded areas, Low: Colchicine 0.1, Podophyllotoxin 0.3, Etoposide 20, 4-OH—OPB 0.67 μM in wells, DMSO 1.16 μl
  Significance: Possible
[2]; b: sparsely seeded areas, Medium: Colchicine 0.3, Podophyllotoxin 0.9, Etoposide 60, 4-OH—OPB 2 μM in wells, DMSO 6.8 μl
  Significance: Possible
[2]; ability of cells to leave a tumour, grow and infiltrate locally or grow in sparsely seeded areas, concluded from Exp 17
  Control of metastatic cells leaving tumour: probably not
[2]; [3]
  Clonal growth, H high density area of cell gradient, High: (+)
  Clonal growth, L low density area of cell gradient, High: (+)
[2]; [4]
  Clonal growth, H high density area of cell gradient, Low: +
  Clonal growth, L low density area of cell gradient, Low: (+)
[2]; [5]
  Clonal growth, H high density area of cell gradient, Medium: +
  Clonal growth, L low density area of cell gradient, Medium: (+)
[2]; single cells or very few cells spread to distant sites, concluded from Exp 17
  Control of settlement of metastatic cells: partly
